Test systems include UACC-62; HCT-116; HOP-62; SF-268; K562; NCI-H522; SF-295; SNB-78; OVCAR-4; OVCAR-5; SF-539; U-251; HCC 2998; HCT-15; SNB-75; 786-0; OVCAR-3; SN12C; IGROV-1.
Common to all, as to assay: inhibition of tumour cell growth, NCI panel, 48 h

Molecules are shown by their SMILES.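 Interpolation was linear, between the two tested concentrations surrounding the appropriate level; five concentrations were tested over 48 hours in 96-well plates. Abbreviation: GI50, concentration required for 50% inhibition of growth.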 The source made the active and inactive calls. Rule as the data show it: active = GI50 up to about 1.1 µM and inactive = higher.

`O=C1c2ccccc2C(=O)C1C(c1ccc([N+](=O)[O-])cc1)C1C(=O)c2ccccc2C1=O`: the GI50 was 32.6 µM (inactive) in the test with UACC-62; 24.3 µM (inactive) in the test with HCT-116; 34.8 µM (inactive) with HOP-62; 24.9 µM (inactive) in the test on SF-268; > 100 µM (inactive) in the test on K562; 63.4 µM (inactive) with NCI-H522. The GI50 in the test on SF-295 was > 100 µM (inactive); with SNB-78, 33.4 µM (inactive); in the test on OVCAR-4, > 100 µM (inactive); in the test on OVCAR-5, > 100 µM (inactive); in the test with SF-539, 73.8 µM (inactive); in the test with U-251 it was 30.3 µM (inactive). For the same compound, the GI50 is > 100 µM (inactive) in the test with HCC 2998; 63.1 µM in the test on HCT-15; 38.6 µM (inactive) in the test on SNB-75; > 100 µM (inactive) in the test on 786-0; 18.5 µM (inactive) in the test on OVCAR-3; 36.6 µM (inactive) with SN12C.

In the case of `C1=C(c2ccccc2)CN(c2ccccc2)OC1`, the GI50 with UACC-62 was 67.3 µM (inactive); with HOP-62, > 100 µM (inactive); in the test with SF-268 it was 79.3 µM (inactive); with K562, 77.4 µM (inactive); with NCI-H522, 18.6 µM (inactive); in the test with SNB-78 it was > 100 µM (inactive). Moreover, the GI50 in the test with OVCAR-4 is > 10 µM (inactive); in the test on OVCAR-5 it was 26.8 µM (inactive); in the test on SF-539, > 100 µM (inactive); with IGROV-1 it was > 100 µM (inactive); in the test on U-251, > 100 µM (inactive); in the test on HCC 2998, > 100 µM (inactive). For the same compound, the GI50 in the test with HCT-15 is 77.4 µM; in the test with SNB-75, 66.4 µM (inactive); with 786-0, > 100 µM (inactive); in the test with OVCAR-3, > 100 µM (inactive); in the test with SN12C, > 100 µM (inactive).

Regarding `O=C(CCc1nnc(S)[nH]1)Nc1ccccc1Cl`, the GI50 with UACC-62, in the test with HCT-116, with HOP-62, in the test with SF-268, in the test on K562 and in the test with NCI-H522 was > 100 µM (inactive) throughout. In addition, the GI50 with SF-295, in the test with SNB-78, in the test with OVCAR-4, with OVCAR-5, in the test on SF-539 and in the test with IGROV-1 was > 100 µM (inactive) each time. The GI50 is > 100 µM (inactive) with U-251; > 100 µM (inactive) in the test on HCC 2998; 20.2 µM with HCT-15; > 100 µM (inactive) with SNB-75; > 100 µM (inactive) in the test with 786-0; > 100 µM (inactive) with OVCAR-3. Moreover, the GI50 with SN12C was > 100 µM (inactive).

As to `COC(=O)c1nc(N)nc(O)c1-c1ccc(Cl)cc1`, the GI50 in the test on UACC-62, in the test on HCT-116, with HOP-62, with SF-268, in the test on K562 and in the test on NCI-H522 was > 100 µM (inactive) throughout. The GI50 with SF-295, with SNB-78, with OVCAR-4, in the test on OVCAR-5, in the test with SF-539 and with IGROV-1 was > 100 µM (inactive) throughout. The GI50 in the test with U-251 was > 100 µM (inactive); in the test with HCC 2998, > 100 µM (inactive); in the test with HCT-15, greater than 100 µM; with SNB-75, > 100 µM (inactive); in the test with 786-0, > 100 µM (inactive); with OVCAR-3, > 100 µM (inactive). Besides, the GI50 in the test on SN12C is > 100 µM (inactive).

Regarding `O=C(O)CCCCCOc1cccnc1/C=N/NC1=NCCN1`, the GI50 in the test on UACC-62, in the test with HCT-116, in the test with HOP-62, in the test with SF-268, with K562 and with NCI-H522 was > 100 µM (inactive) each time. Also, the GI50 in the test on SF-295, with SNB-78, in the test on OVCAR-4, in the test on OVCAR-5, with SF-539 and in the test with IGROV-1 was > 100 µM (inactive) each time. The GI50 with U-251 was > 100 µM (inactive); with HCC 2998, > 100 µM (inactive); with HCT-15, greater than 100 µM; with SNB-75, 20.7 µM (inactive); with 786-0 it was > 100 µM (inactive); with OVCAR-3, > 100 µM (inactive). Further, the GI50 in the test on SN12C is > 100 µM (inactive).

Consider `CN(C)C(=S)/N=c1\ss/c(=N\c2ccccc2)n1-c1ccccc1`, for which the GI50 with HOP-62 is 27.2 µM (inactive); in the test with SF-268 it was 21.6 µM (inactive); in the test on K562 it was 11.2 µM (inactive); in the test on NCI-H522, 1.21 µM (inactive); with SF-295 it was 28.6 µM (inactive); in the test on SNB-78 it was 20.7 µM (inactive). The GI50 in the test on OVCAR-4 is 0.275 µM (active); in the test with OVCAR-5, > 100 µM (inactive); in the test on SF-539 it was 16.3 µM (inactive); in the test on IGROV-1, 25.1 µM (inactive); in the test with U-251, 24.7 µM (inactive); in the test on HCC 2998, 18.7 µM (inactive). The GI50 is 23.2 µM in the test with HCT-15; 14.8 µM (inactive) in the test on SNB-75; 16.1 µM (inactive) with 786-0; 13.7 µM (inactive) in the test with OVCAR-3; 49.5 µM (inactive) in the test on SN12C.

Regarding `O=C(O)CSc1nnc(-c2ccc(O)cc2)[nH]1`, the GI50 with UACC-62, with HCT-116, with HOP-62, with SF-268, in the test with K562 and in the test on NCI-H522 was > 100 µM (inactive) each time. Besides, the GI50 in the test with SF-295, in the test with SNB-78, with OVCAR-4, with OVCAR-5, in the test with SF-539 and in the test with IGROV-1 was > 100 µM (inactive) throughout. The GI50 is > 100 µM (inactive) with U-251; > 100 µM (inactive) in the test with HCC 2998; greater than 100 µM with HCT-15; 41 µM (inactive) in the test on SNB-75; > 100 µM (inactive) in the test with 786-0; > 100 µM (inactive) in the test on OVCAR-3. In addition, the GI50 in the test on SN12C is > 10 µM (inactive).

`Cc1nc2ccccc2c(=O)[nH]1`: the GI50 in the test with UACC-62, with HCT-116, in the test on HOP-62, in the test with SF-268, with K562 and in the test on NCI-H522 was > 100 µM (inactive) each time. For the same compound, the GI50 in the test on SF-295, in the test with SNB-78, in the test with OVCAR-4, in the test on OVCAR-5, with SF-539 and with IGROV-1 was > 100 µM (inactive) in each case. The GI50 with U-251 was > 100 µM (inactive); in the test with HCC 2998 it was > 100 µM (inactive); with HCT-15, greater than 100 µM; in the test on SNB-75, 37.1 µM (inactive); with 786-0, > 100 µM (inactive); in the test on OVCAR-3 it was > 100 µM (inactive). The GI50 with SN12C is > 100 µM (inactive).

The record behind these values is ChEMBL document CHEMBL1201862, “PubChem BioAssay data set” (2004).
